Results on two compounds are retold here after US10413594B2, “Conjugates of somatostatin analogues” (ProLynx LLC, priority 2013, dated 2019).

For data set [1] the following is noted: subcutaneous administration; cited from earlier work.
Data set [2] is described as follows: In vivo pharmacokinetics after IV injection in cannulated rats. Conditions: Sprague Dawley, rat, plasma, 56 mg/kg conjugate. The procedure:
PK assays on the conjugates of Example 5 were performed on cannulated Sprague Dawley rats. […] Blood samples were collected at 0, 1, 2, 4, 8, 12, 24, 48, 72, and 120 hours. At each timepoint a 300 μL blood sample was added to 30 μL of a 1M citrate/0.1% Pluronic® F68 solution, pH 4.5 to lower the pH and remove coagulation factors to give plasma.
A portion of the plasma samples were precipitated by addition of 3 parts acetonitrile and centrifuged at 16000×g for 10 minutes. The samples were analyzed by HPLC for PEG-peptide conjugate and PEG-remnant concentrations. Concentrations were calculated by comparison of peak areas to a standard curve.
A portion of the releasable plasma samples was analyzed by LC/MSMS for free octreotide (MedPace).
The volume of distribution (100 mL/kg) is also in line with previous PEG conjugate, typically measured at the approximate blood volume of the rat (70 mL/kg).

For data set [3] the following is noted: subcutaneous administration; cited from earlier work. This is another data set of the same source.
The target in a further data set is somatostatin receptor 5 (Homo sapiens, UniProt P35346). The settings on record: relative to other somatostatin analogs; cited from earlier work.

SMILES strings stand for the structures. Structures can show the parent of a compound that is named as a salt. Starred links: 1 amine or outer side, 2 acyl side, 3 side chain; linkers in the order of their positions; H or OH if unused. Non-standard residues stand in square brackets, D forms with d. Residues, ends and D or L forms follow the SMILES beside them. Groups on a side chain read outwards from the residue. *: point of attachment. Ethylenediamine = C(CN[*:2])N[*:1]; Hyp = O=C(O)[C@@H]1C[C@@H](O)CN1; Phg = N[C@H](C(=O)O)c1ccccc1; CO = O=C([*:1])[*:2]; Bn = c1ccc(C*)cc1

somatostatin receptor 5, sequence (P35346 whole entry): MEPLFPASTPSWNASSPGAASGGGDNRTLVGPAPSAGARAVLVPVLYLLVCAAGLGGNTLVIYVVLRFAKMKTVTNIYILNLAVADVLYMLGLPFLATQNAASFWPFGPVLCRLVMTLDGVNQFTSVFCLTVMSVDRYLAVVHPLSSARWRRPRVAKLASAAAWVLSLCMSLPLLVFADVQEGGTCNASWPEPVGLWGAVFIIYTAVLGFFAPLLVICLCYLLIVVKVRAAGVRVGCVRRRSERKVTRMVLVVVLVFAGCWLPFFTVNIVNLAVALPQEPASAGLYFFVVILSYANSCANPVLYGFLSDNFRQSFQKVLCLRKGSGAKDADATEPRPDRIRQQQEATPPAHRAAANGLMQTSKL

On to `C[C@@H](O)[C@@H]1NC(=O)[C@H](CCCCN)NC(=O)[C@@H](Cc2c[nH]c3ccccc23)NC(=O)[C@H](Cc2ccccc2)NC(=O)[C@@H](NC(=O)[C@H](N)Cc2ccccc2)CSSCC(C(=O)N[C@H](CO)[C@@H](C)O)NC1=O` (relative stereo) [Octreotide, D-phenylalanyl-L-cysteinyl-L-phenylalanyl-D-tryptophyl-L-lysyl-L-threonyl-N-[2-hydroxy-1-(hydroxymethyl)propyl]-L-Cysteinamide, cyclic (2→7)-disulfide; [R—(R*,R*)]], for which the “average half-life of elimination from plasma” value in data set [1] is on record as 1.7 h. Further, the half-life in data set [2] was 50 h.
With `NCCCC[C@@H]1NC(=O)[C@@H](Cc2c[nH]c3ccccc23)NC(=O)[C@H](c2ccccc2)NC(=O)[C@@H]2C[C@@H](OC(=O)NCCN)CN2C(=O)[C@H](Cc2ccccc2)NC(=O)[C@H](Cc2ccc(OCc3ccccc3)cc2)NC1=O` [Pasireotide, (2-aminoethyl) carbamic acid (2R,5,8S,11S,14R,17S,19aS)-11-(4-aminobutyl)-5-benzyl-8-(4-benzyloxybenzyl)-14-(1H-indol-3ylmethyl)-4,7,10,13,16,19-hexaoxo-17-phenyloctadecahydro-3a,6,9,12,15,18-hexaazacyclopentacyclooctadecen-2-yl ester, di[(S)-2-aminosuccinic acid] salt] (cyclo([Hyp]([CO-Ethylenediamine])[Phg][dW]KY(Bn)F)), in data set [3], the effective half-life result was “approximately 12 h” and the volume of distribution is recorded as above 100 L. Besides, the “increased affinity to somatostatin receptor 5 than other somatostatin analogs” value at somatostatin receptor 5 is on record as 40 fold.

As usually defined, the half-life is the time needed for the level to fall by half in the phase considered. A high value points to slow loss.
